ChEMBL document CHEMBL1136286, “Unexpected enhancement of thrombin inhibitor potency with o-aminoalkylbenzylamides in the P1 position” (Bioorg Med Chem Lett, 2003)

Key:
[1] = target: T1, Serine protease 1 (Homo sapiens, UniProt P07477); experiment: Inhibitory constant evaluated against trypsin
[2] = target: T1, Serine protease 1; experiment: Ratio of inhibitory constant evaluated against trypsin to that of thrombin (Factor IIa)
[3] = target: Prothrombin (Homo sapiens, UniProt P00734); experiment: Inhibitory constant evaluated against thrombin (Factor IIa)
[4] = species: Homo sapiens; experiment: Concentration needed to double the activated partial thromboplastin time in human plasma; assay type: functional

T1 sequence (P07477 whole entry): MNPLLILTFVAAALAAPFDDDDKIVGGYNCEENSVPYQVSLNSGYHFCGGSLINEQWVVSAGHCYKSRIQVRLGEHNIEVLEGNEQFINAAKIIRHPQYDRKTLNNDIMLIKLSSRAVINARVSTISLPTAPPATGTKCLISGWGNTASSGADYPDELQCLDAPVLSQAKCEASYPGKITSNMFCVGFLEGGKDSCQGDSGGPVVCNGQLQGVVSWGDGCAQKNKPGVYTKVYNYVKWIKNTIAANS

Molecule `Cc1ccc(NS(=O)(=O)Cc2ccccc2)c(=O)n1CC(=O)NCc1cc(Cl)ccc1CN` has a Ki [1] of 1.85 µM, a Selectivity ratio [2] of 40200 and a Ki [3] of 0.046 nM. For the same molecule, the “2x APTT” value [4] was 0.16 µM.

`Cc1ccc(NS(=O)(=O)Cc2ccccc2)c(=O)n1CC(=O)NCc1ccccc1CCN` was tested, and the Ki [1] was 437 µM, the Selectivity ratio [2] was 107000 and the Ki [3] was 4.1 nM. The “2x APTT” value [4] was 0.53 µM.

`N[C@H](Cc1ccccc1)C(=O)N1CCC[C@H]1C(=O)NCc1cccc(Cl)c1` was tested, and the Ki [1] was 89 µM, the Selectivity ratio [2] was 356 and the Ki [3] was 250 nM.

`Cc1cc(CNC(=O)[C@@H]2CCCN2C(=O)[C@H](N)C(c2ccccc2)c2ccccc2)c(C)cc1CN` showed a Ki [3] of 39 nM.

Work on `CN(C(=O)C(Cc1ccc(CN)cc1)NS(=O)(=O)c1ccc2c(c1)CCCCC2)C1CCCC1` (configuration not stated) yielded a Ki [1] of 6.3 µM and a Ki [3] of 3.3 nM.

With `Cc1ccc(NS(=O)(=O)Cc2ccccc2)c(=O)n1CC(=O)NCc1cc(Cl)ccc1CCN` the Ki [1] was 37 µM, the Selectivity ratio [2] was 740000 and the Ki [3] was 0.05 nM. For the same molecule, the “2x APTT” value [4] was 0.18 µM.

For `Cc1ccc(NS(=O)(=O)Cc2ccccc2)c(=O)n1CC(=O)NCc1ccccc1N`, the Ki [1] was greater than 1000 µM, the Selectivity ratio [2] was greater than 2130 and the Ki [3] was 470 nM.

Molecule `Cc1ccc(NS(=O)(=O)Cc2ccccc2)c(=O)n1CC(=O)NCc1ccccc1CN` has a Ki [1] of 67 µM, a Selectivity ratio [2] of 12900 and a Ki [3] of 5.2 nM. For the same molecule, the “2x APTT” value [4] was 0.44 µM.

In the case of `Cc1nc(N)ccc1CNC(=O)Cn1c(C)cnc(NCCc2ccccc2)c1=O` [L-375378], the Selectivity ratio [2] is reported as 1910 and the “2x APTT” value [4] is reported as 0.41 µM.

For `NCc1ccc(Cl)cc1CNC(=O)Cn1c(Cl)cnc(NCC(F)(F)c2cccc[n+]2[O-])c1=O`, the Ki [1] was 0.415 µM, the Ki [3] was 0.0034 nM and the “2x APTT” value [4] was 0.13 µM.

For `COc1ccc2cc(S(=O)(=O)NC(Cc3ccc(CN)cc3)C(=O)N(C)C3CCCC3)ccc2c1` (configuration not stated), the Ki [1] was 14.2 µM and the Ki [3] was 6.6 nM.

Work on `NCc1ccccc1CNC(=O)[C@@H]1CCCN1C(=O)[C@H](N)Cc1ccccc1` yielded a Ki [1] of 106 µM, a Selectivity ratio [2] of 339 and a Ki [3] of 313 nM.

In the case of `Cc1nc(N)ccc1CNC(=O)Cn1c(C)ccc(NS(=O)(=O)Cc2ccccc2)c1=O` [L-374087], the Selectivity ratio [2] is reported as 6400 and the “2x APTT” value [4] is reported as 0.22 µM.

`Cc1ccc(NS(=O)(=O)Cc2ccccc2)c(=O)n1CC(=O)NCc1ccc(CN)cc1` gave a Ki [1] of 1.3 µM, a Selectivity ratio [2] of 26.5 and a Ki [3] of 49 nM.

`Cc1ccc(NS(=O)(=O)Cc2ccccc2)c(=O)n1CC(=O)NCc1ccccc1` showed a Ki [1] of 466 µM and a Selectivity ratio [2] of 3580.

`Cc1cnc(NCCc2ccccc2)c(=O)n1CC(=O)NCc1cc(Cl)ccc1CN` was tested, and the Ki [1] was 1.6 µM, the Selectivity ratio [2] was 12300 and the Ki [3] was 0.13 nM. The “2x APTT” value [4] was 0.41 µM.

For `Cc1ccc(NS(=O)(=O)Cc2ccccc2)c(=O)n1CC(=O)NCc1cccc(CN)c1`, the Ki [1] was 23 µM, the Selectivity ratio [2] was 46.9 and the Ki [3] was 490 nM.

`NCc1ccc(Cl)cc1CNC(=O)[C@@H]1CCCN1C(=O)[C@H](N)Cc1ccccc1` was tested, and the Ki [1] was 6.2 µM, the Selectivity ratio [2] was 1910 and the Ki [3] was 3.3 nM. For the same molecule, the “2x APTT” value [4] was 0.34 µM.

`N[C@H](Cc1ccccc1)C(=O)N1CCC[C@H]1C(=O)NCc1ccccc1` showed a Ki [1] greater than 1000 µM and a Selectivity ratio [2] greater than 217.

With `Cc1ccc(NS(=O)(=O)Cc2ccccc2)c(=O)n1CC(=O)NCc1cccc(Cl)c1` the Ki [1] was 20 µM, the Selectivity ratio [2] was 2790 and the Ki [3] was 7.1 nM. The “2x APTT” value [4] was 2.8 µM.

`NCCc1ccc(Cl)cc1CNC(=O)[C@@H]1CCCN1C(=O)[C@H](N)Cc1ccccc1` gave a Ki [1] of 252 µM, a Selectivity ratio [2] of 4060 and a Ki [3] of 62 nM.
